In US8802597B2, “Herbicidal pyrimidines” (E I du Pont de Nemours and Company, priority 2003, dated 2014):
Where two headings read alike, the source gives them in different places.

Legend:
Type in all cases: in vivo
[1] = test system: rice (Oryza sativa); assay: Test B flooded paddy test; settings: Oryza sativa, Flood, scale 0 to 100, read-out: Plant response rating, Rice
Method in brief: (§1)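 Visual injury scoring (0 = no effect, 100 = complete control) versus controls made 13 to 15 days after treatment in the greenhouse. Test species were grown in flooded paddy to the 2-leaf stage: rice, barnyardgrass, umbrella sedge, duck salad.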

[2] = test system: duck salad (Heteranthera limosa); assay: Test B flooded paddy test; settings: Heteranthera limosa, Flood, scale 0 to 100, read-out: Plant response rating, Ducksalad
Method in brief: as §1

[3] = test system: umbrella sedge (Cyperus difformis); assay: Test B flooded paddy test; settings: Cyperus difformis, Flood, scale 0 to 100, read-out: Plant response rating, Sedge, Umbrella
Method in brief: as §1

[4] = test system: barnyardgrass (Echinochloa crus-galli); assay: Test B flooded paddy test; settings: Echinochloa crus-galli, Flood, scale 0 to 100, read-out: Plant response rating, Barnyardgrass
Method in brief: as §1

[5] = test system: Surinam grass (Brachiaria decumbens); assay: Test B pre/postemergence; settings: Urochloa decumbens; for pest or weed control at 125 g/ha: 125 g ai/ha; for pest or weed control at 62 g/ha: 62 g ai/ha
Method in brief: (§2)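 Visual injury scored 0 (no effect) to 100 (complete control) versus untreated controls after 13 to 15 days in greenhouse. Treatments were pre- or postemergence sprays of surfactant-containing solvent formulations; postemergence plants at 1- to 4-leaf stage, 2 to 18 cm.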

[6] = test system: pigweed (Amaranthus retroflexus); assay: Test B pre/postemergence; settings: Amaranthus retroflexus; for pest or weed control at 62 g/ha: 62 g ai/ha; for pest or weed control at 125 g/ha: 125 g ai/ha
Method in brief: as §2

[7] = test system: crabgrass (Digitaria sanguinalis); assay: Test B pre/postemergence; settings: Digitaria sanguinalis; for pest or weed control at 62 g/ha: 62 g ai/ha; for pest or weed control at 125 g/ha: 125 g ai/ha
Method in brief: as §2

[8] = test system: corn (Zea mays); assay: Test B pre/postemergence; settings: Zea mays
Method in brief: as §2

[9] = test system: cocklebur (Xanthium strumarium); assay: Test B pre/postemergence; settings: Xanthium strumarium; for pest or weed control at 62 g/ha: 62 g ai/ha; for pest or weed control at 125 g/ha: 125 g ai/ha
Method in brief: as §2

[10] = test system: velvetleaf (Abutilon theophrasti); assay: Test B pre/postemergence; settings: Abutilon theophrasti; for pest or weed control at 62 g/ha: 62 g ai/ha; for pest or weed control at 125 g/ha: 125 g ai/ha
Method in brief: as §2

[11] = test system: lambsquarters (Chenopodium album); assay: Test B pre/postemergence; settings: Chenopodium album; for pest or weed control at 62 g/ha: 62 g ai/ha; for pest or weed control at 125 g/ha: 125 g ai/ha
Method in brief: as §2

[12] = test system: barnyardgrass (Echinochloa crus-galli); assay: Test B pre/postemergence; settings: Echinochloa crus-galli, scale 0 to 100 (0 no effect, 100 complete control); for pest or weed control at 62 g/ha: 62 g ai/ha; for pest or weed control at 125 g/ha: 125 g ai/ha
Method in brief: as §2

[13] = test system: morningglory (Ipomoea coccinea); assay: Test B pre/postemergence; settings: Ipomoea; for pest or weed control at 62 g/ha: 62 g ai/ha; for pest or weed control at 125 g/ha: 125 g ai/ha
Method in brief: as §2

[14] = test system: wheat (Triticum aestivum); assay: Test B pre/postemergence; settings: Triticum aestivum, scale 0 to 100 (0 no effect, 100 complete control); for plant injury at 62 g/ha: 62 g ai/ha; for plant injury at 125 g/ha: 125 g ai/ha
Method in brief: as §2

[15] = test system: giant foxtail (Setaria faberii); assay: Test B pre/postemergence; settings: Setaria faberi; for pest or weed control at 125 g/ha: 125 g ai/ha; for pest or weed control at 62 g/ha: 62 g ai/ha
Method in brief: as §2

[16] = test system: wild oat (Avena fatua); assay: Test B postemergence; settings: Avena fatua, post-emergence, scale 0 to 100 (0 no effect, 100 complete control), read-out: Oat, Wild plant response rating
Method in brief: as §2

[17] = test system: blackgrass (Alopecurus myosuroides); assay: Test B postemergence; settings: Alopecurus myosuroides, post-emergence, scale 0 to 100 (0 no effect, 100 complete control), read-out: Blackgrass plant response rating
Method in brief: as §2

[18] = post-emergence, Postemergence, scale 0 to 100 (0 no effect, 100 complete control), read-out: Surinam Grass plant response rating
[19] = post-emergence, Postemergence, scale 0 to 100 (0 no effect, 100 complete control), read-out: Pigweed plant response rating
[20] = post-emergence, Postemergence, scale 0 to 100 (0 no effect, 100 complete control), read-out: Crabgrass plant response rating
[21] = post-emergence, Postemergence, scale 0 to 100 (0 no effect, 100 complete control), read-out: Cocklebur plant response rating
[22] = post-emergence, Postemergence, scale 0 to 100 (0 no effect, 100 complete control), read-out: Velvetleaf plant response rating
[23] = post-emergence, Postemergence, scale 0 to 100 (0 no effect, 100 complete control), read-out: Lambsquarters plant response rating
[24] = post-emergence, Postemergence, read-out: Barnyardgrass plant response rating
[25] = pre-emergence, Preemergence, read-out: Plant response rating, Barnyardgrass
[26] = post-emergence, Postemergence, scale 0 to 100 (0 no effect, 100 complete control), read-out: Morningglory plant response rating
[27] = post-emergence, Postemergence, read-out: Wheat plant response rating
[28] = pre-emergence, Preemergence, read-out: Plant response rating, Wheat
[29] = post-emergence, Postemergence, scale 0 to 100 (0 no effect, 100 complete control), read-out: Foxtail, Giant plant response rating

## Nc1nc(C2CC2)nc(C(=O)OCc2ccccc2)c1Cl [Compound 78, phenylmethyl 6-amino-5-chloro-2-cyclopropyl-4-pyrimidinecarboxylate]
[1]; 125 g ai/ha
  plant injury at 125 g/ha: 20%
[1]; 500 g ai/ha
  plant injury at 500 g/ha: 40%
[2]; 125 g ai/ha
  pest or weed control at 125 g/ha: 20%
[2]; 500 g ai/ha
  pest or weed control at 500 g/ha: 70%
[3]; 125 g ai/ha
  pest or weed control at 125 g/ha: 10%
[3]; 500 g ai/ha
  pest or weed control at 500 g/ha: 50%
[4]; 125 g ai/ha
  pest or weed control at 125 g/ha: 0%
[4]; 500 g ai/ha
  pest or weed control at 500 g/ha: 40%
[5]; [18]
  pest or weed control at 125 g/ha: 80%
  pest or weed control at 62 g/ha: 60%
[5]; pre-emergence, Preemergence, scale 0 to 100 (0 no effect, 100 complete control), read-out: Plant response rating, Surinam Grass
  pest or weed control at 125 g/ha: 90%
[5]; pre-emergence, Preemergence, scale 0 to 100, 0 no effect, 100 complete control, read-out: Plant response rating, Surinam Grass
  pest or weed control at 62 g/ha: 60%
[6]; [19]
  pest or weed control at 62 g/ha: 80%
  pest or weed control at 125 g/ha: 100%
[6]; pre-emergence, Preemergence, scale 0 to 100, 0 no effect, 100 complete control, read-out: Plant response rating, Pigweed
  pest or weed control at 62 g/ha: 100%
[6]; pre-emergence, Preemergence, scale 0 to 100 (0 no effect, 100 complete control), read-out: Plant response rating, Pigweed
  pest or weed control at 125 g/ha: 100%
[7]; [20]
  pest or weed control at 62 g/ha: 60%
  pest or weed control at 125 g/ha: 70%
[7]; pre-emergence, Preemergence, scale 0 to 100, 0 no effect, 100 complete control, read-out: Plant response rating, Crabgrass
  pest or weed control at 62 g/ha: 80%
[7]; pre-emergence, Preemergence, scale 0 to 100 (0 no effect, 100 complete control), read-out: Plant response rating, Crabgrass
  pest or weed control at 125 g/ha: 90%
[8]; post-emergence, Postemergence, 62 g ai/ha, scale 0 to 100 (0 no effect, 100 complete control), read-out: Corn plant response rating
  plant injury at 62 g/ha: 40%
[8]; post-emergence, Postemergence, 125 g ai/ha, scale 0 to 100 (0 no effect, 100 complete control), read-out: Corn plant response rating
  plant injury at 125 g/ha: 80%
[8]; pre-emergence, Preemergence, 62 g ai/ha, scale 0 to 100, 0 no effect, 100 complete control
  Corn plant response rating (crop injury, 0 = no effect, 100 = complete kill) at 62 g/ha: 30%
[8]; pre-emergence, Preemergence, 125 g ai/ha, scale 0 to 100 (0 no effect, 100 complete control)
  Corn plant response rating (crop injury, 0 = no effect, 100 = complete kill) at 125 g/ha: 70%
[9]; [21]
  pest or weed control at 62 g/ha: 100%
  pest or weed control at 125 g/ha: 100%
[9]; pre-emergence, Preemergence, scale 0 to 100, 0 no effect, 100 complete control, read-out: Plant response rating, Cocklebur
  pest or weed control at 62 g/ha: 80%
[9]; pre-emergence, Preemergence, scale 0 to 100 (0 no effect, 100 complete control), read-out: Plant response rating, Cocklebur
  pest or weed control at 125 g/ha: 100%
[10]; [22]
  pest or weed control at 62 g/ha: 70%
  pest or weed control at 125 g/ha: 80%
[10]; pre-emergence, Preemergence, scale 0 to 100, 0 no effect, 100 complete control, read-out: Plant response rating, Velvetleaf
  pest or weed control at 62 g/ha: 70%
[10]; pre-emergence, Preemergence, scale 0 to 100 (0 no effect, 100 complete control), read-out: Plant response rating, Velvetleaf
  pest or weed control at 125 g/ha: 90%
[11]; [23]
  pest or weed control at 62 g/ha: 100%
  pest or weed control at 125 g/ha: 100%
[11]; pre-emergence, Preemergence, scale 0 to 100, 0 no effect, 100 complete control, read-out: Plant response rating, Lambsquarters
  pest or weed control at 62 g/ha: 90%
[11]; pre-emergence, Preemergence, scale 0 to 100 (0 no effect, 100 complete control), read-out: Plant response rating, Lambsquarters
  pest or weed control at 125 g/ha: 100%
[12]; [24]
  pest or weed control at 62 g/ha: 80%
  pest or weed control at 125 g/ha: 90%
[12]; [25]
  pest or weed control at 62 g/ha: 60%
  pest or weed control at 125 g/ha: 70%
[13]; [26]
  pest or weed control at 62 g/ha: 100%
  pest or weed control at 125 g/ha: 100%
[13]; pre-emergence, Preemergence, scale 0 to 100, 0 no effect, 100 complete control, read-out: Plant response rating, Morningglory
  pest or weed control at 62 g/ha: 80%
[13]; pre-emergence, Preemergence, scale 0 to 100 (0 no effect, 100 complete control), read-out: Plant response rating, Morningglory
  pest or weed control at 125 g/ha: 100%
[14]; [27]
  plant injury at 62 g/ha: 50%
  plant injury at 125 g/ha: 70%
[14]; [28]
  plant injury at 62 g/ha: 30%
  plant injury at 125 g/ha: 70%
[15]; [29]
  pest or weed control at 125 g/ha: 70%
  pest or weed control at 62 g/ha: 60%
[15]; pre-emergence, Preemergence, scale 0 to 100 (0 no effect, 100 complete control), read-out: Plant response rating, Foxtail, Giant
  pest or weed control at 125 g/ha: 70%
[15]; pre-emergence, Preemergence, scale 0 to 100, 0 no effect, 100 complete control, read-out: Plant response rating, Foxtail, Giant
  pest or weed control at 62 g/ha: 20%
[16]; 62 g ai/ha
  pest or weed control at 62 g/ha: 50%
[16]; 125 g ai/ha
  pest or weed control at 125 g/ha: 70%
[17]; 62 g ai/ha
  pest or weed control at 62 g/ha: 20%
[17]; 125 g ai/ha
  pest or weed control at 125 g/ha: 40%
